The record followed here is patent US20240158446A1, “CYCLIC COMPOUND HAVING SELECTIVE INHIBITORY ACTION ON KRAS OVER HRAS AND NRAS” (CHUGAI SEIYAKU KABUSHIKI KAISHA, priority 2021, published 2024).

SMILES strings stand for the structures. Where two headings read alike, the source gives them in different places.

Assay [1] concerns the target GDP-bound HRAS wild-type protein (Homo sapiens, UniProt P01112). Put plainly: Binding to HRAS by surface plasmon resonance (SPR), Single Cycle Kinetics. The following applies: for HRAS/KRAS (ratio of KD value for HRAS to KD value for KRAS): SPR, GDP-bound HRAS wild-type protein vs GDP-bound KRAS wild-type protein; for HRAS/KRAS (ratio of KD value with respect to GDP-bound HRAS wild-type protein to KD value with respect to KRAS): SPR KD ratio HRAS/KRAS, class symbols. For orientation: In SPR one partner is held on a chip, and binding of the other changes the refractive index at the surface.

Assay [2] has as its system human lung cancer strain NCI-H441.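 Note: cell proliferation inhibition after four days measured by CellTiter-Glo.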
Assay [3] addresses GDP-bound KRAS wild-type protein (Homo sapiens, UniProt P01116). The experiment in a line: Binding to KRAS by surface plasmon resonance (SPR), Single Cycle Kinetics. The following applies: GDP-bound KRAS wild-type protein, read-out: KRAS KD.
Assay [4] has as its target GDP-bound NRAS wild-type protein (Homo sapiens, UniProt P01111). Put plainly: Binding to NRAS by surface plasmon resonance (SPR), Single Cycle Kinetics. The following applies: for NRAS/KRAS (ratio of KD value for NRAS to KD value for KRAS): SPR, GDP-bound NRAS wild-type protein vs GDP-bound KRAS wild-type protein; for NRAS/KRAS (ratio of KD value with respect to GDP-bound NRAS wild-type protein to KD value with respect to KRAS): SPR KD ratio NRAS/KRAS, class symbols.

The mark [5] stands for this setting: SPR Single Cycle Kinetics, 1:1 binding model.

Sequence of GDP-bound KRAS wild-type protein (P01116 whole entry): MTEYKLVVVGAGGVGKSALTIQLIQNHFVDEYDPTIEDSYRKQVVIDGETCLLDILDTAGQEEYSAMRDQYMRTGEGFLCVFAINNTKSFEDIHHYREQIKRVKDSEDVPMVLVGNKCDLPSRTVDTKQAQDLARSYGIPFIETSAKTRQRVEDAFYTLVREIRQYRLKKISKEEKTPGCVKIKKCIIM
Sequence of GDP-bound NRAS wild-type protein (P01111 whole entry): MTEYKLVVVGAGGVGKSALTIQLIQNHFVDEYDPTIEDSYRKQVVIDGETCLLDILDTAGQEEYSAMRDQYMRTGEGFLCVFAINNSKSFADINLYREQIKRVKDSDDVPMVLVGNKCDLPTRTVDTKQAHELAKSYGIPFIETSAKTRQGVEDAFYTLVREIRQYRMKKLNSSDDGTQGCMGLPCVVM
Sequence of GDP-bound HRAS wild-type protein (P01112 whole entry): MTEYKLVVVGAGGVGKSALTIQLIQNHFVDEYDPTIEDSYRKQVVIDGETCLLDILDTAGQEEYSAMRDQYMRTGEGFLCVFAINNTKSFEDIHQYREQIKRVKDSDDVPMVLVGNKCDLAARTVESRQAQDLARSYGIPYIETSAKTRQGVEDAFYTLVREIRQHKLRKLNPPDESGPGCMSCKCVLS

By IC50 is commonly meant the concentration needed to halve the response being measured. Low readings indicate higher potency, high ones lower potency. The Kd is the concentration at which binding is half-saturated. As for `CCC[C@H]1C(=O)N[C@@H](CC(C)C)C(=O)N(CCOC)CC(=O)N(C)[C@H]2C/C=C\CCN(C2=O)[C@@H](Cc2ccc(C)cc2)C(=O)N(C)CC(=O)N[C@@H](CCc2cc(F)c(C(F)(F)F)c(F)c2)C(=O)N2C[C@H](OCC)C[C@H]2C(=O)NC2(CC(C)(C)C2)C(=O)N(C)[C@@H](C2CCCC2)C(=O)N(C)[C@H](C(=O)N(C)C)CC(=O)N1C` [PP2520], the “HRAS/KRAS (ratio of KD value for HRAS to KD value for KRAS)” value in assay [1] is “A (a compound having 10 or more and less than 20 is denoted as A)”. This molecule also had a concentration for half-maximal inhibition (IC50) in assay [2] of 0.21 µM. The Kd in assay [3] (SPR, Single Cycle Kinetics) is 0.0033 µM. Further, the “NRAS/KRAS (ratio of KD value for NRAS to KD value for KRAS)” value in assay [4] is “A (a compound having 10 or more and less than 20 is denoted as A)”.

Turning to `CCC[C@H]1C(=O)N[C@@H]([C@@H](C)CC)C(=O)N(C2CC2)CC(=O)N(C)[C@H]2C/C=C\CCN(C2=O)[C@@H](CC2CCC(F)(F)CC2)C(=O)N(C)CC(=O)N[C@@H](CCc2ccc(Cl)c(Cl)c2)C(=O)N2C[C@H](OC(C)C)C[C@H]2C(=O)NC2(CC(C)(C)C2)C(=O)N(C)[C@@H](C2CCCC2)C(=O)N(C)[C@H](C(=O)N(C)C)CC(=O)N1C` [PP2521], the “HRAS/KRAS (ratio of KD value for HRAS to KD value for KRAS)” value in assay [1] is “A (a compound having 10 or more and less than 20 is denoted as A)”. For the same molecule, the IC50 in assay [2] stood at 0.129 µM. The Kd in assay [3] (SPR, Single Cycle Kinetics) came to 0.0028 µM. In addition, the “NRAS/KRAS (ratio of KD value for NRAS to KD value for KRAS)” value in assay [4] is “A (a compound having 10 or more and less than 20 is denoted as A)”.

In the case of `CCC[C@H]1C(=O)N[C@@H](CC(C)C)C(=O)N(CCOC)CC(=O)N(C)[C@H]2C/C=C\CCN(C2=O)[C@@H](Cc2ccc(C)cc2)C(=O)N(C)CC(=O)N[C@@H](CCc2ccc(C(F)(F)F)c(OC)c2)C(=O)N2C[C@H](OCC)C[C@H]2C(=O)NC2(CC(C)(C)C2)C(=O)N(C)[C@@H](C2CCCC2)C(=O)N(C)[C@H](C(=O)N(C)C)CC(=O)N1C` [PP2522], the “HRAS/KRAS (ratio of KD value with respect to GDP-bound HRAS wild-type protein to KD value with respect to KRAS)” value in assay [1] was “B (a compound having 3 or more and less than 10 is denoted as B)”. The molecule further yielded a half-maximal inhibitory concentration (IC50) in assay [2] of 0.113 µM. For the same molecule, the Kd in assay [3] (setting [5]) was determined as 0.0032 µM. In addition, the “NRAS/KRAS (ratio of KD value with respect to GDP-bound NRAS wild-type protein to KD value with respect to KRAS)” value in assay [4] was “B (a compound having 3 or more and less than 10 is denoted as B)”.

For the molecule `CCC(CC)[C@H]1C(=O)N(C)[C@H](C(=O)N(C)C)CC(=O)N(C)[C@@H](COC)C(=O)N[C@@H]([C@@H](C)CC)C(=O)N(C2CC2)CC(=O)N(C)[C@H]2C/C=C\CCN(C2=O)[C@@H](CC2CCC(F)(F)CC2)C(=O)N(C)CC(=O)N[C@@H](CCc2cc(F)c(C(F)(F)F)c(F)c2)C(=O)N2C[C@H](OC(C)C)C[C@H]2C(=O)NC2(CC(C)(C)C2)C(=O)N1C` [PP2523], in assay [1], the “HRAS/KRAS (ratio of KD value with respect to GDP-bound HRAS wild-type protein to KD value with respect to KRAS)” value was “A (a compound having 10 or more and less than 20 is denoted as A)”. Further, the IC50 in assay [2] stood at 0.0919 µM. Further, the Kd in assay [3] (setting [5]) came to 0.0017 µM. For the same molecule, in assay [4], the “NRAS/KRAS (ratio of KD value with respect to GDP-bound NRAS wild-type protein to KD value with respect to KRAS)” value was “A (a compound having 10 or more and less than 20 is denoted as A)”.

For the molecule `CCC(CC)[C@H]1C(=O)N(C)[C@H](C(=O)N(C)C)CC(=O)N(C)[C@@H](COC)C(=O)N[C@@H]([C@@H](C)CC)C(=O)N(C2CC2)CC(=O)N(C)[C@H]2C/C=C\CCN(C2=O)[C@@H](CC2CCC(F)(F)CC2)C(=O)N(C)CC(=O)N[C@@H](CCc2ccc(Cl)c(Cl)c2)C(=O)N2C[C@H](OC(C)C)C[C@H]2C(=O)NC2(CC(C)(C)C2)C(=O)N1C` [PP2525], the “HRAS/KRAS (ratio of KD value with respect to GDP-bound HRAS wild-type protein to KD value with respect to KRAS)” value in assay [1] was “A (a compound having 10 or more and less than 20 is denoted as A)”. Half-maximal inhibition in assay [2] (IC50) required 0.142 µM. Also, in assay [3] (setting [5]), the Kd amounted to 0.0038 µM. Also, in assay [4], the “NRAS/KRAS (ratio of KD value with respect to GDP-bound NRAS wild-type protein to KD value with respect to KRAS)” value is “AA (a compound having 20 or more is denoted as AA)”.

As to `C#CCN1CC(=O)N(C)[C@H]2C/C=C\CCN(C2=O)[C@@H](Cc2ccc(C)cc2)C(=O)N(C)CC(=O)N[C@@H](CCc2ccc(C(F)(F)F)c(Cl)c2)C(=O)N2C[C@H](OCC)C[C@H]2C(=O)NC2(CC(C)(C)C2)C(=O)N(C)[C@@H](C2CCCC2)C(=O)N(C)[C@H](C(=O)N(C)C)CC(=O)N(C)[C@@H](CCC)C(=O)N[C@@H](CC(C)C)C1=O` [PP2526], the “HRAS/KRAS (ratio of KD value with respect to GDP-bound HRAS wild-type protein to KD value with respect to KRAS)” value in assay [1] was “B (a compound having 3 or more and less than 10 is denoted as B)”. In addition, half-maximal inhibition in assay [2] (IC50) was put at 0.0545 µM. The Kd in assay [3] (setting [5]) was found to be 0.004 µM. In addition, in assay [4], the “NRAS/KRAS (ratio of KD value with respect to GDP-bound NRAS wild-type protein to KD value with respect to KRAS)” value was “A (a compound having 10 or more and less than 20 is denoted as A)”.

Take `CCC[C@H]1C(=O)N[C@@H]([C@@H](C)CC)C(=O)N(C2CC2)CC(=O)N(C)[C@H]2C/C=C\CCN(C2=O)[C@@H](Cc2ccc(C(F)F)cc2)C(=O)N(C)CC(=O)N[C@@H](CCc2cc(F)c(C(F)(F)F)c(F)c2)C(=O)N2C[C@H](OCC)C[C@H]2C(=O)NC2(CC(C)(C)C2)C(=O)N(C)[C@@H](C(CC)CC)C(=O)N(C)[C@H](C(=O)N(C)C)CC(=O)N1C` [PP2527]: the “HRAS/KRAS (ratio of KD value with respect to GDP-bound HRAS wild-type protein to KD value with respect to KRAS)” value in assay [1] is “A (a compound having 10 or more and less than 20 is denoted as A)”. The midpoint of inhibition in assay [2], the IC50, lay at 0.031 µM. Moreover, the dissociation constant (Kd) in assay [3] (setting [5]) worked out at 0.00065 µM. Also, the “NRAS/KRAS (ratio of KD value with respect to GDP-bound NRAS wild-type protein to KD value with respect to KRAS)” value in assay [4] was “AA (a compound having 20 or more is denoted as AA)”.

Turning to `CCC[C@H]1C(=O)N[C@@H](CC(C)C)C(=O)N(CC)CC(=O)N(C)[C@H]2C/C=C\CCN(C2=O)[C@@H](Cc2ccc(C)cc2)C(=O)N(C)CC(=O)N[C@@H](CCc2ccc(C(F)(F)F)c(Cl)c2)C(=O)N2C[C@H](OCC)C[C@H]2C(=O)NC2(CC(C)(C)C2)C(=O)N(C)[C@@H](C2CCCC2)C(=O)N(C)[C@H](C(=O)N(C)C)CC(=O)N1C` [PP2528], in assay [1], the “HRAS/KRAS (ratio of KD value with respect to GDP-bound HRAS wild-type protein to KD value with respect to KRAS)” value was “B (a compound having 3 or more and less than 10 is denoted as B)”. The IC50 in assay [2] came out at 0.207 µM. In addition, the Kd in assay [3] (setting [5]) worked out at 0.0046 µM. In assay [4], the “NRAS/KRAS (ratio of KD value with respect to GDP-bound NRAS wild-type protein to KD value with respect to KRAS)” value is “A (a compound having 10 or more and less than 20 is denoted as A)”.

For `CCC[C@H]1C(=O)N[C@@H]([C@@H](C)CC)C(=O)N(C2CC2)CC(=O)N(C)[C@H]2C/C=C\CCN(C2=O)[C@@H](Cc2ccc(C(F)F)cc2)C(=O)N(C)CC(=O)N[C@@H](CCc2cc(F)c(C(F)(F)F)c(F)c2)C(=O)N2C[C@H](OC(C)C)C[C@H]2C(=O)NC2(CC(C)(C)C2)C(=O)N(C)[C@@H](C(CC)CC)C(=O)N(C)[C@H](C(=O)N(C)C)CC(=O)N1C` [PP2529], the “HRAS/KRAS (ratio of KD value with respect to GDP-bound HRAS wild-type protein to KD value with respect to KRAS)” value in assay [1] is “A (a compound having 10 or more and less than 20 is denoted as A)”. For the same molecule, the IC50 in assay [2] is 0.064 µM. Also, in assay [3] (setting [5]), the Kd stood at 0.00077 µM. For the same molecule, the “NRAS/KRAS (ratio of KD value with respect to GDP-bound NRAS wild-type protein to KD value with respect to KRAS)” value in assay [4] is listed as “AA (a compound having 20 or more is denoted as AA)”.

`CCC[C@H]1C(=O)N[C@@H]([C@@H](C)CC)C(=O)N(C)CC(=O)N(C)[C@H]2C/C=C\CCN(C2=O)[C@@H](Cc2ccc(C(F)F)cc2)C(=O)N(C)CC(=O)N[C@@H](CCc2ccc(Cl)c(Cl)c2)C(=O)N2C[C@H](OCC)C[C@H]2C(=O)NC2(CC(C)(C)C2)C(=O)N(C)[C@@H](C(CC)CC)C(=O)N(C)[C@H](C(=O)N(C)C)CC(=O)N1C` [PP2531]: the “HRAS/KRAS (ratio of KD value with respect to GDP-bound HRAS wild-type protein to KD value with respect to KRAS)” value in assay [1] is “A (a compound having 10 or more and less than 20 is denoted as A)”. The IC50 in assay [2] stood at 0.0163 µM. Further, the equilibrium dissociation constant (Kd) in assay [3] (setting [5]) turned out to be 0.00051 µM. Further, the “NRAS/KRAS (ratio of KD value with respect to GDP-bound NRAS wild-type protein to KD value with respect to KRAS)” value in assay [4] is given as “AA (a compound having 20 or more is denoted as AA)”.
